Patent publication US20110092488A1, “Quninoline Methanol Compounds for the Treatment and Prevention of Parasitic Infections” (priority 2005, published 2011)
Values after ≈ are worked out from the molar mass of the structure shown. “Also recorded” adds a separate entry of the source.

How the values were obtained:
P. falciparum D6 [1] = experiment: Isobologram analysis azithromycin and WR074086, P. falciparum D6; type: cell-based, Plasmodium falciparum; conditions: Line C FIG. 5: starting azithromycin 12500 ng/ml, WR074086 5 ng/ml
Method: (§1) The combined effects of azithromycin (as represented by compound 196 on the horizontal axes of FIG. 4 through 6) and WR074086 (as represented by compound 14885 on vertical axes of FIGS. 4 through 6) against three strains of P. falciparum were investigated using isobologram analysis. First, the IC50s of each compound were determined as described above.
Next, IC50s were determined with different fractional starting concentrations of each compound. For example in line C of FIG. 5, the starting concentration of azithromycin was 12500 ng/ml whereas the starting concentration of WR074086 was 5 ng/ml. Each of these starting concentrations is half of that used when each compound was tested alone. […] In the data tables, lines D-H represent other combinations of starting concentrations of each compound.
For each pair of starting concentrations for each drug, fractional inhibitory concentrations were determined using the following formula: FIC=IC50 in combination/IC50 alone.
The FICs for the eight tests are plotted as indicated in FIG. 4 through FIG. 6 for each of three P. falciparum strains. Graphs of this type are called isobolograms and additivity is represented by an overall FIC SUM of 1, as represented by the straight line joining the two axes. A potentiative effect is represented by a concave curve below the straight line, since IC50s in combination are lower than expected. Antagonism is represented by a convex curve above the straight line, since IC50s in combination are higher than expected.

P. falciparum D6 [2] = experiment: In vitro antimalarial activity against P. falciparum D6; type: cell-based, Plasmodium falciparum; conditions: Plasmodium falciparum, D6; FIG. 5; read-out: IC50 against P. falciparum D6, compound alone
Method: (§2) The in vitro activities of AAQMs against P. falciparum strains W2, D6, TM91C235 and TM90C2A were evaluated using the method of Desjardins et al. as modified by Milhous et al. W2 is chloroquine resistant and mefloquine sensitive, D6 is chloroquine sensitive but naturally less susceptible to mefloquine, TM91C235 is resistant to mefloquine, chloroquine and pyrimethamine as is TM90C2A, however this latter parasite is a two pfmdr1 copy strain. We routinely run mefloquine in this screen as a control to ensure assay validity.
as §1

[3] = tested on: primary rat forebrain neurons; experiment: Neurocytotoxicity assay (MTT); conditions: for IC50: read-out: Neurotoxicity ranking (IC50 in μM), approximate IC50 from screen at 10, 100 and 1000 μM, MTT
Method: The neurocytotoxicity assay of AAQMs was conducted as per Dow et al.; The antimalarial potential of 4-quinolinecarbinolamines may be limited due to neurotoxicity and cross-resistance in mefloquine-resistant Plasmodium falciparum strains; Chemother. (48) 2624-2632 (2004) and is incorporated herein, by reference. This assay utilizes primary rat forebrain neurons and is a multi-endpoint screen. […] The AAQMs outlined in Table 1 were screened at 10, 100 and 1000 μM in triplicate, and the reduction in viability observed was determined using the 3-(4,5-dimethylthiazol-2-yl)-2,5-diphenyltetrazolium bromide (MTT) assay as per Dow et al., discussed above. Approximate IC50 values were calculated on the basis of the level of inhibition observed at each concentration. Full dose response assays were run for mefloquine and WR069878 with two fold dilutions (n=6 wells per dilution) and 11 dilutions for each drug. IC50s were calculated using Prism. Each time the assay is conducted, 20 μM mefloquine is included, as a control. […] Assays are re-run if the loss of viability induced by mefloquine is <40% or >60%. Neuroprotection experiments with 6,7-dinitroquinoxaline-2,3-dione (DNQX) and magnesium were performed as per Dow et al.; Transcriptional profiling of mefloquine-induced disruption of calcium homeostasis in neurons in vitro; Genomics (86)539-550 (2005), which is incorporated by reference, herein. Neurons were exposed to DNQX (100 μM) or magnesium (12 mM) for 5 min, followed by mefloquine (25 μM) or WR069878 (250 μM) for 20 min after which reduction in cell viability was determined. […] DNQX is an inhibitor of non-N-methyl-D-aspartate (NMDA) receptors, whilst magnesium inhibits the functioning of the inositol 1,4,5-trisphosphate (IP3)-mediated calcium signaling pathway at several points. The effects of mefloquine and WR069878 on neuronal calcium homeostasis were assessed utilizing confocal microscopy as per Dow et al, as discussed in Antimicrob Agents Chemother. (48)2624-2632 (2004), cited above, and incorporated by reference, herein. Briefly neurons were loaded with calcium sensitive dye Fluo 3-A for 1 h and were washed prior to image experiments. Neurons were ‘spiked’ with 100 μM mefloquine or WR069878. Subsequent changes in neuronal calcium homeostasis were recorded as fluctuations in the emitted fluorescence of fluo-3-complexed calcium at 530 nm (excitation was 488 nm). Sequential image scans of fields containing 5-25 neurons were used to construct temporal profiles. Scans were made at 10 s intervals. Fluorescence levels for each neuron were normalized 12 to time zero values. Data were then pooled from three and five independent experiments for mefloquine and WR069878 respectively.

P. falciparum TM91C235 = experiment: In vitro antimalarial activity against P. falciparum TM91C235; type: cell-based, Plasmodium falciparum; conditions: for TM91C235 IC90: Table 2
Method: as §2

[4] = Aotus, 10 mg/kg/day oral x7; for Plasma conc on day 1 (ng/ml) 2 h: day 1, 2 h; for Plasma conc on day 1 (ng/ml) 24 h: day 1, 24 h; for Plasma conc. on day 7 (ng/ml) 2 h: day 7, 2 h; for Plasma conc. on day 7 (ng/ml) 24 h: day 7, 24 h
Method: (§3) The P. berghei-mouse efficacy data were obtained from the WRAIR chemical information system (subcutaneous testing) or from recent tests conducted at AFRIMS, Thailand or at the University of Miami using a modified version of the Thompson test. Groups of five mice were inoculated through i.p. injection on day 0 (usually with 1×106 P. berghei-parasitized erythrocytes). The drugs in Table 1 were administered either subcutaneously or orally for three days (usually on days 3-5) at doses of 1.25-160 mg/kg in two to four fold increments. Cure was defined as survival until day 60 (subcutaneous dosing) or day 31 post-treatment (oral dosing). […] The minimum effective dose was the lowest dose level that cured at least one of five mice. The Aotus studies were performed according to Obaldia; Detection of Klebsiella pnuumoniae antibodies in Aotus l. lemurinus (Panamanian owl monkey) using an enzyme linked immunosorbent assay (ELIA) test; Lab Anim (25)133-141 (1991) and Obaldia et al., WR 238605, chloroquine, and their combinations as blood schizonticides against a chloroquine-resistant strain of Plasmodium vivax in Aotus monkeys; Am. J. Trop. Med. Hyg. (56)508-510 (1997), which are incorporated by reference, herein. Groups of two Aotus lemurinus 6 lemurinus of the karyotype VIII or IX (27) male and female monkeys with weights ranging from 742-970 g were inoculated with 5×10^6 parasites of either the FVO strain of P. falciparum or the AMRU1 strain of P. vivax. Both of these strains are chloroquine resistant. […] Monkeys were examined and thick Giemsa-stained blood smears were prepared and enumerated daily (17) to monitor the course of infection. […] In some instances, a high dose of the test drug was used to retreat monkeys instead of the mefloquine rescue. Monkeys are considered cured if they are parasite free 90 days post treatment. […] Plasma samples were taken from the monkeys in some studies for quantification of metabolites. Additional blood samples were taken as appropriate for complete blood counts and serum chemistry. Research was conducted in compliance with the Animal Welfare Act and other federal statutes and regulations relating to animals and experiments involving animals and adheres to principles stated in the Guide for the Care and Use of Laboratory Animals, NRC Publication, 1996 edition (34).

[5] = tested on: FVO strain of P. falciparum; experiment: Efficacy in P. falciparum-challenged Aotus monkeys; type: in vivo, Plasmodium falciparum in Aotus lemurinus lemurinus; conditions: 10 mg/kg/day x7 oral; groups of two; Cure = parasite free 90 days; R = average day of recrudescence; Failure = rescued with mefloquine
Method: as §3

[6] = Method: The AAQMs indicated in Table 1 (10 μM) were added to a mixture containing an NADPH-regenerating buffer (1.25 mM β-NADP+, 3.3 mM glucose-6-phosphate, and 3.3 mM MgCl2) and 0.5 mg/ml pooled human liver microsomes to a final volume of 125 μl. The mixtures were incubated for 5 minutes at 37° C. and the reactions were initiated by adding 25 μl glucose-6-phosphate dehydrogenase to a final concentration of 1 unit/ml. The reactions were maintained at 37° C. until they were terminated by the addition of an equal volume of 100% ice cold acetonitrile at 0, 10, 30, 60, and 120 minutes. Samples were centrifuged to pellet the proteins and the supernatant was analyzed by LC-MS/MS in duplicate using fast LC gradient or isocratic methods. AAQM concentrations were quantified with external calibration, using plots of response v. amount. Chromatograms were analyzed using the mass spectrometry software Xcalibur® QuanBrowser (for ThermoFinnigan® instruments) or MassLynx® (for Waters® instruments). Concentrations of AAQMs remaining at each time point were calculated using the unknown peak areas and corresponding calibration curves. In order to calculate the half-life, a first-order rate of decay was assumed. […] All reagents were purchased from Sigma except for the microsomes, which were obtained from BD Gentest®. For metabolite identification, samples were prepared as described above with human liver microsomes. Additional samples were prepared with for each AAQM using mouse, rat, and rhesus monkey liver microsomes. Samples were separated using an LC gradient method and analyzed by full scan LC-MS and LC-MS/MS. […] These MS/MS data were also used to do preliminary structural elucidation. […] The relative percentage of formation of each metabolite was determined in a semi-quantitative manner since standards of each metabolite were not available. Peak areas of each detected AAQM metabolite and the internal standard were determined, and their ratios were calculated as metabolite area/internal standard area. The percent formation of each metabolite was determined as the area ratio divided by the sum of all the metabolite area ratios.
[7] = tested on: Plasmodium falciparum malaria; conditions: P. falciparum malaria, South East Asia; WR030090: field trials; cited from earlier work

CC[C@H]1OC(=O)[C@H](C)[C@@H](O[C@H]2C[C@@](C)(OC)[C@@H](O)[C@H](C)O2)[C@H](C)[C@@H](O[C@@H]2O[C@H](C)C[C@H](N(C)C)[C@H]2O)[C@](C)(O)C[C@@H](C)CN(C)[C@H](C)[C@@H](O)[C@]1(C)O [azithromycin, reference compound]
FIC (IC50 in combination/IC50 alone) (P. falciparum D6 [1]): 0.249 | IC50 (P. falciparum D6 [2]): 7.23 µg/mL (≈ 9.66 µM)

CCCCN(CCCC)CC(O)c1cc(-c2ccc(Cl)cc2)nc2cc(F)ccc12 (stereo not shown) [WR081049]
IC50 [3]: 200 µM | Activity against P. falciparum TM91C235 (IC50 in ng/ml) (P. falciparum TM91C235): 1.6 ng/mL

CCCC[N+]([O-])(CCCC)CC(O)c1cc(-c2ccc(Cl)cc2)nc2c(Cl)cc(Cl)cc12 (stereo not shown) [WR098656]
IC50 [3]: 60 µM | Activity against P. falciparum TM91C235 (IC50 in ng/ml) (P. falciparum TM91C235): 3.3 ng/mL

CCCCN(CCCC)CC(O)c1cc(-c2ccc(I)cc2)nc2c(Cl)cc(Cl)cc12 (stereo not shown) [WR106752]
Activity against P. falciparum TM91C235 (IC50 in ng/ml) (P. falciparum TM91C235): 8.0 ng/mL

CCCCN(CCCC)CC(O)c1cc(-c2ccc(Cl)cc2)nc2c(Cl)cc(Cl)cc12 (stereo not shown) [WR029252]
IC50 [3]: 600 µM | Mean peak concentration [4]: 44 ng/mL | Plasma conc on day 1 (ng/ml) 2 h [4]: 67 ng/mL | Plasma conc on day 1 (ng/ml) 24 h [4]: 1.0 ng/mL | Plasma conc. on day 7 (ng/ml) 2 h [4]: 21 ng/mL | Plasma conc. on day 7 (ng/ml) 24 h [4]: 1.0 ng/mL | Activity against P. falciparum TM91C235 (IC50 in ng/ml) (P. falciparum TM91C235): 7.6 ng/mL | TM91C235 IC90 (P. falciparum TM91C235): 20 ng/mL | Outcome in Aotus [5]: Failure

O=C(O)c1cc(C(F)(F)F)nc2c(C(F)(F)F)cccc12 [Mefloquine metabolite, reference compound]
Killing of neurons ([3]; at 1000 microM, FIG. 1): only partial killing

CCCCNCC(O)c1cc(-c2ccc(Cl)cc2)nc2c(C)cc(C)cc12 (stereo not shown) [WR176399]
IC50 [3]: 600 µM | Route of metabolic transformation [6]: hydroxylation | Mean peak concentration [4]: 28 ng/mL | Plasma conc on day 1 (ng/ml) 2 h [4]: 27 ng/mL | Plasma conc on day 1 (ng/ml) 24 h [4]: 2.7 ng/mL | Plasma conc. on day 7 (ng/ml) 2 h [4]: 30 ng/mL | Plasma conc. on day 7 (ng/ml) 24 h [4]: 3.8 ng/mL | Activity against P. falciparum TM91C235 (IC50 in ng/ml) (P. falciparum TM91C235): 0.48 ng/mL | TM91C235 IC90 (P. falciparum TM91C235): <0.5 ng/mL | Outcome in Aotus [5]: cleared parasitemias, but recrudescence was subsequently observed; also recorded: Clear (R21)

CCCCCCN(CCCCCC)CC(O)c1cc(-c2ccccc2)nc2c(Cl)cccc12 (stereo not shown) [WR211679]
Activity against P. falciparum TM91C235 (IC50 in ng/ml) (P. falciparum TM91C235): 7.7 ng/mL

CCCCNCC(O)c1cc(-c2ccc(Cl)cc2)nc2c(Cl)cc(Cl)cc12 (stereo not shown) [WR007524]
IC50 [3]: 60 µM | Route of metabolic transformation [6]: not at all | Activity against P. falciparum TM91C235 (IC50 in ng/ml) (P. falciparum TM91C235): 0.63 ng/mL

C=C[C@H]1C[N@@]2CC[C@H]1C[C@H]2[C@H](O)c1ccnc2ccc(OC)cc12 [quinine]
Cure rate [7]: 26-50%

CCN(CC)CC(O)c1cc(-c2ccc(Cl)cc2)nc2c(Cl)cc(Cl)cc12 (stereo not shown) [WR041294]
IC50 [3]: 60 µM | Route of metabolic transformation [6]: N-dealkylation | Activity against P. falciparum TM91C235 (IC50 in ng/ml) (P. falciparum TM91C235): 1.1 ng/mL

CCCCN(CCCC)CC(O)c1cc(-c2ccc(Cl)cc2)nc2c(C)cccc12 (stereo not shown) [WR211925]
IC50 [3]: 600 µM | Activity against P. falciparum TM91C235 (IC50 in ng/ml) (P. falciparum TM91C235): 5.2 ng/mL

CCCCN(CCCC)CC(O)c1cc(-c2ccc(Cl)cc2)nc2ccc(Cl)cc12 (stereo not shown) [WR035058]
IC50 [3]: 600 µM | Mean peak concentration [4]: 413 ng/mL | Plasma conc on day 1 (ng/ml) 2 h [4]: 454 ng/mL | Plasma conc on day 1 (ng/ml) 24 h [4]: 84 ng/mL | Plasma conc. on day 7 (ng/ml) 2 h [4]: 371 ng/mL | Plasma conc. on day 7 (ng/ml) 24 h [4]: 105 ng/mL | Activity against P. falciparum TM91C235 (IC50 in ng/ml) (P. falciparum TM91C235): 2.7 ng/mL | TM91C235 IC90 (P. falciparum TM91C235): 8.5 ng/mL | Outcome in Aotus [5]: Cures and Cure
